Literature values as cited in patent US20050227929A1, “Combination therapy comprising a Cox-2 inhibitor and an antineoplastic agent” (priority 2003, published 2005).
Read-outs that look alike come from different tables or passages of the source. Where a SMILES comes first, the peptide text is derived from it.

How the values were obtained:
[1] = human, in vivo
tumors = conditions: tumor-bearing mice received 225-300 μg/kg over 5 days

Molecule: CNC(=O)c1cc(Oc2ccc(NC(=O)Nc3ccc(Cl)c(C(F)(F)F)c3)cc2)ccn1 [BAY-439006]
- Toxicity (dosage listed: 50-400 mg/day): well tolerated

Molecule: N[C@@H](CCC(=O)O)C(=O)N[C@@H](Cc1c[nH]c2ccccc12)C(=O)O [IM 862, L-alpha-glutamyl-L-tryptophan] (H-Glu-Trp-OH)
- Toxicity (in vivo): no hematological

Molecule: COc1ccc(NS(=O)(=O)c2c(F)c(F)c(F)c(F)c2F)cc1F [T138067, 2,3,4,5,6-pentafluoro-N-(3-fluoro-4-methoxyphenyl)benzenesulfonamide]
- Dosage: tolerability (up to 440 mg/m^2 by 3-hour infusion every 4 weeks): well tolerated

Molecule: CC(C)[C@H]1C(=O)N[C@@H](CCCN=C(N)N)C(=O)NCC(=O)N[C@@H](CC(=O)O)C(=O)N[C@H](Cc2ccccc2)C(=O)N1C [cilengitide, cyclo(L-arginylglycyl-L-alpha-aspartyl-D-phenylalanyl-N-methyl-L-valyl)]
- Toxicity [1]: well tolerated and safe

Molecule: Cc1occc(=O)c1[O-].Cc1occc(=O)c1[O-].Cc1occc(=O)c1[O-].[Ga+3] [gallium maltolate]
- Toxicity (in vivo): good safety

Molecule: Cc1ccc2nc(N)[nH]c(=O)c2c1Sc1ccncc1 [nolatrexed, 2-amino-6-methyl-5-(4-pyridinylthio)-4(1H)-quinazolinone]
- Dosage: tolerability [1]: tumors is well

Molecule: O=S1(=O)CCN(CN2CCS(=O)(=O)NC2)CN1 [taurolidine, 4,4′-methylenebis[tetrahydro-2H-1,2,4-thiadiazine]1,1,1′,1′-tetraoxide]
- Dosage: tolerability (in vivo, 350 mg/kg/day): well tolerated

Molecule: Nc1ccn([C@@H]2O[C@H](CO)[C@@H](O)/C2=C\F)c(=O)n1 [tezacitabine]
- Toxicity [1]: generally

B1: SB-408075 (conjugate, chains of the INN, looked up)
VH: QVQLVQSGAEVKKPGETVKISCKASDYTFTYYGMNWVKQAPGQGLKWMGWIDTTTGEPTYAQKFQGRIAFSLETSASTAYLQIKSLKSEDTATYFCARRGPYNWYFDVWGQGTTVTVSS
VL: DIVMTQSPLSVPVTPGEPVSISCRSSKSLLHSNGNTYLYWFLQRPGQSPQLLIYRMSNLVSGVPDRFSGSGSGTAFTLRISRVEAEDVGVYYCLQHLEYPFTFGPGTKLELK
modifications: DM1 maytansinoid payload
- complete responses seen in % of animals (tumors): in 100% of
